Each structure is given as a SMILES string. In brackets after ≈: the same amount, converted by molar mass. Like-named read-outs stand apart in the source and are kept apart here. Bounds are passed on as bounds.

Data set [1] relates to BALB/c-3T3 mouse fibroblasts. As to the kind of experiment: 3T3 neutral red uptake phototoxicity assay. In kind it is cell-based. As to conditions: for IC50: Mus musculus, BALB/c3T3, light or radiation study. The procedure:
Therefore, the compounds of the present disclosure were screened for phototoxicity using the 3T3 natural red uptake assay.
In brief, BALB/c-3T3 mouse fibroblasts (originally obtained from ATCC) were seeded in 96-well plates at 12,000 cells per well, and grown for 24 hr. Test compounds and the positive control (chlorpromazine) were solubilized and serially diluted in DMSO. The negative control (histidine) was solubilized and diluted in HBSS. A dilution for all test articles was then made into HBSS at the final testing concentrations. At the start of the assay, the growth medium was removed from the plates and replaced with test agent dilution. Six replicates were used for each concentration. Cells were incubated in the dark with test article for 1 h, exposed to UVA light (2.5 J/cm2 over 18 min) and incubated 24 hrs. in the dark. A parallel non-irradiated plate was treated similarly, except it was stored in the dark, rather than illuminated.
For Neutral Red staining, medium was removed and fresh medium containing 25 μg/mL of Neutral Red (Sigma) was added. After three hours incubation, the cells were washed with PBS, and the cellular dye was solubilized with 1% acetic acid in 50% ethanol. Cellular Neutral Red was measured by its absorbance at 540 nm.
Data analysis: An IC50 (concentration that causes 50% reduction in viability) was calculated for each condition by linear interpolation.
A Photo-Irritation Factor (PIF) was calculated: PIF=IC50(−Irr)/IC50(+Irr)
PIF>5 indicates phototoxicity; 2<PIF<5 indicates probable phototoxicity; PIF<2 indicates no phototoxicity
In addition, the Mean Photo Effect (MPE) was calculated by comparison of the complete concentration-response curves. MPE is a weighted average of the difference in response of equivalent doses normalized by the shift in IC50.
MPE>0.15 indicates phototoxicity; 0.1<MPE<0.15 indicates probable phototoxicity; MPE<0.1 indicates no phototoxicity.

Data set [2] concerns ERK phosphorylation in HEKa cells. Put plainly: phospho-ERK in HEKa cells following EGFR inhibitors (Western blot). In kind it is cell-based, human. As to the method: Human normal keratinocyte cells HEKa were purchased from Gibco Rhenium and seeded in 10 cm dishes (300,000 cells/dish) and incubated overnight at 37° C., 5% CO2. Next morning, the medium was replaced to a starvation medium for 2 hours and then the cells were treated for 2 additional hours with the test compounds. Post incubation, the cells were lyzed with RIPA and the protein extracts were analyzed by western blot for Phospho-ERK and total ERK. Untreated cells and 0.1% DMSO treated cells were used as negative control. HKGS growth factors was used as a positive control.
Western blot: 7.5 μg of total extract was loaded on 10% acrylamide gel. Following transfer, the membranes were blocked with TBST/5% skimmed milk and then incubated with Mouse anti Phospho-ERK (1:1000 in TBST 5% BSA, ON at 4° C.) and goat anti Mouse HRP (1:10,000 in TBST 5% BSA, 1-hour RT). The membranes were exposed using SuperSignal West Pico Chemiluminescent Substrate.
The HRP was then inactivated by incubating the membranes for 1 hour with 0.5% sodium azide Following washes and ECL exposure in order to ensure absence of signal, the membranes were re-blocked for 15 min with TBST/5% skimmed milk and then incubated with Rabbit anti total ERK2 (1:500 in TBST 5% BSA, ON at 4° C.), goat anti Rabbit HRP (1:5,000 in TBST 5% BSA, 1-hour RT) and finally exposed using the SuperSignal West Pico Chemiluminescent Substrate. The films were scanned and the signal were quantified using ImageJ software. The results were calculated as Phospho-ERK/total ERK.
HKGS was used as a positive control.
For orientation: Immunoblotting shows a protein as a band on a membrane.

[3] abbreviates: MPE>0.15 phototoxicity, 0.1-0.15 probable, <0.1 none.
Setting [4] is: non-irradiated, Neutral Red, read-out: Cell Viability IC50 Minus UVA.
[5] abbreviates: PIF=IC50(−Irr)/IC50(+Irr), >5 phototoxicity, 2-5 probable, <2 none.

With `Cc1ccc2c(Nc3ccc(Cl)cc3)nccc2c1Nc1ncccc1-c1ncnc2[nH]cnc12` [Compound C-1], in data set [1], the “Comment (photo-toxicity assessment)” value is “Non” and the “phototoxicity (3T3 NRU), stated in words” value is reported as “did not show phototoxicity”. Also, the half-maximal inhibitory concentration (IC50) in data set [1] (0.3 h, read-out: Cell Viability IC50 Plus UVA) was found to be 18.1 µg/mL. For the same compound, the concentration for half-maximal inhibition (IC50) in data set [1] (read-out: Cell Viability IC50 Minus UVA) turned out to be 14 µg/mL (≈ 29.2 µM). Also, in data set [1] (mouse, 24 h), the “Mean MPE” value is on record as −0.011 and the “Mean PIF” value worked out at 0.8.
On to `C#Cc1cccc(Nc2ncnc3cc(OCCOC)c(OCCOC)cc23)c1` [Erlotinib, erlotinib, reference compound], for which the “phospho ERK compared to HKGS treated cells” value in data set [2] was “decreased”.
With `N[C@@H](Cc1c[nH]cn1)C(=O)O` [Histidine, histidine], the “Mean MPE” value in data set [1] (setting [3]) is listed as 0.036. In addition, the IC50 in data set [1] (0.3 h, UVA 2.5 J/cm2 over 18 min, Neutral Red, read-out: Cell Viability IC50 Plus UVA) was more than 1000 µg/mL; in data set [1] (setting [4]), more than 1000 µg/mL. For the same compound, in data set [1] (setting [5]), the “Mean PIF” value came out at 1.
In the case of `CN(C)CCCN1c2ccccc2Sc2ccc(Cl)cc21` [Chloropromazine, chlorpromazine], in data set [1], the “Comment (photo-toxicity assessment)” value is recorded as “Phototoxic”. For the same compound, the “Mean MPE” value in data set [1] (setting [3]) was 0.477. For the same compound, in data set [1] (setting [4]), the half-maximal inhibitory concentration (IC50) worked out at 31 µg/mL (≈ 97.2 µM). In addition, the “Mean PIF” value in data set [1] (setting [5]) stood at 31.6.

One may read the IC50 as the point on the concentration scale where inhibition reaches its midpoint.

(Values after patent US11339163B2, “BRaf inhibitors and use thereof for treatment of cutaneous reactions” (Lutris Pharma Ltd., priority 2017, dated 2022).)
